From US5700833A, “Isocarbacyclin derivatives” (Research Developement Corporation of Japan, priority 1995, dated 1997)

How the values were obtained:
[1] = test system: platelets; test: Platelet aggregation inhibiting activity (ADP-induced, platelet rich plasma); assay type: cell-based, rat; settings: for IC50: rat platelet rich plasma, 100 μM ADP, 5 μl, 37° C., 1 min preincubation
Description: Blood was totally taken from the abdominal aorta of an anesthetized rat (body weight: 500 g). Then, 1/10 volume part of 3.8% sodium citrate was added to the sampled blood and the mixture was centrifugally separated at 1,000 rpm for ten minutes to achieve an upper layer of platelet rich plasma (PRP). The lower layer was then further centrifugally separated at 3,000 rpm for ten minutes to prepare platelet poor plasma (PPP). The number of platelets in PRP was measured, and PPP was diluted to adjust the number to […] to serve as a platelet solution. The platelet solution was placed in an amount of 90 μl into a cuvette, and the drug to be tested in an amount of […] was added for incubation at 37° C. for one minute. Then, an aggregation agent (100 μM ADP) in an amount of 5 μl was added to cause aggregation of platelets, and changes in […] were measured. Control of aggregation activity was conducted by using turbidity upon addition of physiological saline.

[2] = test system: prostacyclin receptor (CNS) in the thalamus ([^3 H] isocarbacyclin receptor); test: Displacement test relative to tritium-labelled isocarbacyclin, thalamus (CNS), autoradiography of frozen brain sections; assay type: binding, rat; settings: for Binding ratio to [^3 H] isocarbacyclin receptor: thalamus (CNS), 10 nM [^3 H]isocarbacyclin, 4° C., 2 h, pH 7.4
Description: (§1) Blood ingredients were removed from the brain of a rat by systemic perfusion, and were frozen, thus preparing a frozen section having a thickness of 10 μm. This section was incubated with 10 nM [^3 H]isocarba cyclin and isocarbacyclin derivatives at various concentrations, at 4° C. for two hours in 50 mM Tris/HCl pH 7.4 and 20 mM MgCl2 solution. After incubation and washing, the solution was dried, thereby preparing an autoradiography film of the section. A displacement value for each derivative was determined by quantitative analysis of the autoradiography (n=at least 4).
1) The results in the thalamus (CNS) are shown in Tables 1 and 2 for the following compounds: [drawing 27]

[3] = target: T1, prostacyclin receptor (PNS) in the medulla oblongata nucleus ([^3 H] isocarbacyclin receptor) (Rattus norvegicus, UniProt P43253); test: Displacement test relative to tritium-labelled isocarbacyclin, medulla oblongata nucleus (PNS), autoradiography of frozen brain sections; settings: 10 nM [^3 H]isocarbacyclin, 4° C., 2 h, pH 7.4, read-out: Binding ratio to [^3 H] isocarbacyclin receptor; for activity at 0.3 µM: un-labelled compound 3 × 10^-7 M; for activity at 0.03 µM: un-labelled compound 3 × 10^-8 M; for activity at 1 µM: un-labelled compound 10^-6 M; for activity at 0.01 µM: un-labelled compound 10^-8 M; for activity at 0.003 µM: un-labelled compound 3 × 10^-9 M; for activity at 0.1 µM: un-labelled compound 10^-7 M
T1 construct: Blood ingredients were removed from the brain of a rat by systemic perfusion; from tissue; host or cells: rat brain, frozen sections, medulla oblongata nucleus (nucleus solitarius) read by autoradiography
T1 sequence (P43253 whole entry, the tested form may be a part): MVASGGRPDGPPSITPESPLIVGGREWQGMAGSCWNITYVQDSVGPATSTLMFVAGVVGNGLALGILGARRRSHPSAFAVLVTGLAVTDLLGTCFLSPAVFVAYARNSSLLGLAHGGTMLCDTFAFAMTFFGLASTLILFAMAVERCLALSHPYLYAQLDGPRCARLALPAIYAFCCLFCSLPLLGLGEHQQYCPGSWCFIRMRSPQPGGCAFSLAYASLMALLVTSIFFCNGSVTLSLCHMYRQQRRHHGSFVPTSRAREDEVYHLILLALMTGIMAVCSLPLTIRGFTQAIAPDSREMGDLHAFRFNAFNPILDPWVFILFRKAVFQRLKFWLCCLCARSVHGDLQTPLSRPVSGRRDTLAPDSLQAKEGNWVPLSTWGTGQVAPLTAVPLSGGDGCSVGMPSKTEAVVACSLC
Description: as §1

[4] = test system: prostacyclin binding sites in cerebral hemisphere; settings: autoradiography, frozen cryostat sections; cited from earlier work
[5] = test system: binding site of iloprost in platelets; settings: cited from earlier work
[6] = test system: dopamine D1 receptors; settings: cited from earlier work
[7] = test system: nervous system; settings: cited from earlier work
[8] = test system: platelets aggregation / vasodilation; settings: compared with natural prostacyclin; cited from earlier work
[9] = neutral or oxidizing conditions; cited from earlier work
[10] = un-labelled compound 3 × 10^-7 M, 0.3 µM
[11] = un-labelled compound 3 × 10^-8 M, 0.03 µM
[12] = un-labelled compound 3 × 10^-9 M
[13] = un-labelled compound 10^-6 M, 1 µM
[14] = un-labelled compound 10^-7 M, 0.1 µM

| IC50 [1] | Binding ratio to [^3 H] isocarbacyclin receptor [2, 10] | Binding ratio to [^3 H] isocarbacyclin receptor [2, 11] | Binding ratio to [^3 H] isocarbacyclin receptor [2, 12] | Binding ratio to [^3 H] isocarbacyclin receptor [2, 13] | Binding ratio to [^3 H] isocarbacyclin receptor [2, 14] | Binding ratio to [^3 H] isocarbacyclin receptor ([2]; un-labelled compound 10^-8 M) | activity at 0.3 µM [3] | activity at 0.03 µM [3] | activity at 1 µM [3] | activity at 0.01 µM [3] | activity at 0.003 µM [3] | activity at 0.1 µM [3] | SMILES | also measured |
| --- | --- | --- | --- | --- | --- | --- | --- | --- | --- | --- | --- | --- | --- | --- |
| 19 nM | 36.6% | 84.6% | 98.6% | 20.1% | 58.0% | 93.9% | 39.5% | 80.5% | 33.8% | 88.3% | 96.6% | 54.8% | Cc1cccc(C[C@H](O)/C=C/[C@@H]2[C@H]3CC(CCCCC(=O)O)=C[C@H]3C[C@H]2O)c1 [Compound B] | – |
| – | 94.1% | 98.4% | 101.1% | 88.5% | 100.8% | 99.8% | 45.8% | 80.6% | 34.4% | 92.8% | 96.9% | 55.6% | Cc1cccc(CCC[C@H](O)/C=C/[C@@H]2[C@H]3CC(CCCCC(=O)O)=C[C@H]3C[C@H]2O)c1 [Compound D] | – |
| 63 nM | – | – | – | – | – | – | – | – | – | – | – | – | CCCCC[C@H](O)/C=C/[C@H]1[C@H](O)CC(=O)[C@@H]1CCCCCCC(=O)O [Prostaglandin E1, reference compound] | reaction with the binding site of iloprost [5]: the binding site of iloprost reacts also with PGE1 |
| – | 73.3% | 93.8% | 98.7% | 48.1% | 85.9% | 96.1% | 71.8% | 89.9% | 53.5% | 92% | 95% | 81.3% | Cc1cccc(CCC[C@@H](O)/C=C/[C@@H]2[C@H]3CC(CCCCC(=O)O)=C[C@H]3C[C@H]2O)c1 [Compound C] | – |
| 2.5 nM | 34.7% | 76.4% | 99.2% | 19.3% | 62.7% | 94.5% | 22.5% | 57.3% | 8% | 79% | 94% | – | CCCCC[C@H](O)/C=C/[C@@H]1[C@H]2CC(CCCCC(=O)O)=C[C@H]2C[C@H]1O [Isocarbacyclin, 9(O)-methano-Δ^6(9α) prostaglandin I1] | platelets aggregation inhibiting functions and vasodilating antihypertensive effects [8]: strong platelets aggregation inhibiting functions and vasodilating antihypertensive effects and other biological activities well comparable with those of natural prostacyclin |

The next lines start with the compound.

| SMILES | IC50 [1] | Binding ratio to [^3 H] isocarbacyclin receptor [2, 10] | Binding ratio to [^3 H] isocarbacyclin receptor [2, 11] | Binding ratio to [^3 H] isocarbacyclin receptor [2, 12] | Binding ratio to [^3 H] isocarbacyclin receptor [2, 13] | Binding ratio to [^3 H] isocarbacyclin receptor [2, 14] | Binding ratio to [^3 H] isocarbacyclin receptor ([2]; un-labelled compound 10^-8 M) | activity at 0.3 µM [3] | activity at 0.03 µM [3] | activity at 1 µM [3] | activity at 0.01 µM [3] | activity at 0.003 µM [3] | activity at 0.1 µM [3] | also measured |
| --- | --- | --- | --- | --- | --- | --- | --- | --- | --- | --- | --- | --- | --- | --- |
| Cc1cccc(C[C@@H](O)/C=C/[C@@H]2[C@H]3CC(CCCCC(=O)O)=C[C@H]3C[C@H]2O)c1 [Compound A, 15R-16-(3-methylphenyl)-17, 18, 19, 20-tetranolisocarbacycline] | > 400 nM | 25.4% | 67.0% | 97.4% | 15.7% | 48.3% | 89.2% | 69.8% | 79.3% | 52.5% | 74.1% | – | – | platelet aggregation inhibiting activity ([1]; in words): almost no platelet aggregation inhibiting activity; binding to the thalamic prostacyclin receptor (CNS) ([2]; in words): firmly bound to the thalamic prostacyclin receptor (CNS); activity relative to the prostacyclin receptor (CNS) in the thalamus ([2]; in words, compared with isocarbacyclin): an activity stronger than that of isocarbacyclin; activity at 0.001 µM ([3]; un-labelled compound 10^-9 M (so in the source)): 84.7% |
| CC#CCC(C)[C@H](O)/C=C/[C@@H]1[C@H]2C/C(=C/CCCC(=O)O)C[C@H]2C[C@H]1O (some centres unmarked) [[^3 H] iloprost] | – | – | – | – | – | – | – | – | – | – | – | – | – | prostacyclin binding sites found [4]: prostacyclin binding sites in corpus striatum, amygdala, hippocampus and part of the cerebral cortex |
| CC#CCC(C)[C@H](O)/C=C/[C@@H]1[C@H]2C/C(=C/CCCC(=O)O)C[C@H]2C[C@H]1O (some centres unmarked) [iloprost] | – | – | – | – | – | – | – | – | – | – | – | – | – | prevention of the binding of dopamine D1 receptors [6]: prevention of the binding of dopamine D1 receptors; effects on the nervous system [7]: sedation, anticonvulsation, antihypoxemia (prolongation effects in hypoxemia) and synchronizing induction effects of brain waves antagonized by amphetamine |
| CCCCC[C@H](O)/C=C/[C@@H]1[C@H]2C/C(=C/CCCC(=O)O)O[C@H]2C[C@H]1O [Natural prostacyclin] | – | – | – | – | – | – | – | – | – | – | – | – | – | chemical stability [9]: easily inactivated under neutral or oxidizing conditions |
